Laboratory results taken from ChEMBL document CHEMBL1123001, “Ibotenic acid analogues. Synthesis, molecular flexibility, and in vitro activity of agonists and antagonists at central glutamic acid receptors” (J Med Chem, 1985).
The source made the active and inactive calls. The calls are words filed in the database; no cut-off is given here.

Assays:
Rattus norvegicus [1] = species: Rattus norvegicus; assay: Inhibition of [3H]AMPA binding in rat brain membrane was evaluated; assay type: functional
[2] = Antagonist activity was evaluated by NMDA-induced excitations of feline spinal neuron; activity is seen; assay type: functional; conditions: filed as antagonist
[3] = NMDA Antagonist activity was evaluated; na means no activity; assay type: functional
[4] = Antagonist activity was evaluated by NMDA-induced excitations of feline spinal neuron; no activity; assay type: functional
[5] = NMDA Antagonist activity was evaluated; na means no activity; na means no activity; assay type: functional
Rattus norvegicus [6] = species: Rattus norvegicus; assay: GDEE-sensitive neuronal excitant (Relative potency) was evaluated; +++; assay type: functional, organism-based

For NC(CCc1cc(O)no1)C(=O)O (centres undefined), the IC50 (Rattus norvegicus [1]) was 64 µM and the Antagonist activity [2] was “Antagonist”.
In the case of N[C@@H](CCC(=O)O)C(=O)O [GLUTAMIC ACID], the Antagonist activity [3] is reported as “inactive” and the IC50 (Rattus norvegicus [1]) is reported as 1.3 µM.
In the case of Cc1onc(O)c1C[C@H](N)C(=O)O [(S)-AMPA], the Antagonist activity [3] is reported as “inactive” and the IC50 (Rattus norvegicus [1]) is reported as 0.6 µM.
For Cc1onc(O)c1C[C@@H](N)C(=O)O, the Antagonist activity [3] was “inactive” and the IC50 (Rattus norvegicus [1]) was 4.8 µM.
For Cc1c(O)noc1C(C)C(N)C(=O)O (centres undefined), the Antagonist activity [3] was “inactive” and the IC50 (Rattus norvegicus [1]) was over 100 µM.
For CC(C)(C)c1onc(O)c1CC(N)C(=O)O (centres undefined), the IC50 (Rattus norvegicus [1]) was 10.6 µM and the Antagonist activity [4] was “inactive”.
In the case of NC(Cc1c(O)noc1CBr)C(=O)O (centres undefined), the Antagonist activity [3] is reported as “inactive” and the IC50 (Rattus norvegicus [1]) is reported as 0.6 µM.
With Cc1onc(O)c1CC(N)C(=O)O (racemic) [(R,S)-AMPA] the IC50 (Rattus norvegicus [1]) was 0.8 µM, the Antagonist activity [5] was “inactive” and the Relative potency (Rattus norvegicus [6]) was “Active”.
With NC(CCCc1cc(O)no1)C(=O)O (centres undefined) the IC50 (Rattus norvegicus [1]) was over 100 µM and the Antagonist activity [2] was “Antagonist”.
